Experimental data taken from patent US8476455B2, “1-N-phenyl-amino-1h-imidazole derivatives and pharmaceutical compositions containing them” (Laboratoire Theramex, priority 2003, dated 2013).
Entries after “also recorded” stand apart in the source; their conditions may differ.

Key:
[1] = molecular target: T1, human aromatase (Homo sapiens, UniProt P11511); assay: Dual aromatase and steroid sulfatase activities in JEG-3 cells: aromatase readout; format: cell-based; settings: footnote c: dual aromatase and sulfatase activity, nd: not detected, read-out: Aromatase activity IC50 (nM) ± S.E.M.
T1 construct: The JEG-3 cell line, derived from a human placental choriocarcinoma, constitutively overexpresses human aromatase; endogenous in cells; host or cells: JEG-3 (human placental choriocarcinoma)
T1 sequence (P11511 1-503): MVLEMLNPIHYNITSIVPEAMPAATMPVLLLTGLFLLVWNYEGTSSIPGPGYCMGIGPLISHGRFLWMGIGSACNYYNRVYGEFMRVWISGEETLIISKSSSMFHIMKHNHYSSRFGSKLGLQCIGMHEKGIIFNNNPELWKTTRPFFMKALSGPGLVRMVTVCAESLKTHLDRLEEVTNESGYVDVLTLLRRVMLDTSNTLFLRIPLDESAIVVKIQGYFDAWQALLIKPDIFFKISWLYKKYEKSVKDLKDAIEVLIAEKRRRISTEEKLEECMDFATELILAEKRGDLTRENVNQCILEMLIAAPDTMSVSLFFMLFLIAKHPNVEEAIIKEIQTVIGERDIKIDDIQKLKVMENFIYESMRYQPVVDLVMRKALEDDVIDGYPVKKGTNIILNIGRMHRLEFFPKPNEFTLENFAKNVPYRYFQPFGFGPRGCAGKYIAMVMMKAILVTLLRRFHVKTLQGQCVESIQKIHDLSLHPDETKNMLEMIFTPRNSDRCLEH
Protocol: Assays were carried out with cells in logarithmic growth phase on 96-well microplates. 24 h before studies, cells were seeded in decomplemented fetal calf serum (dFCS) supplemented medium. The medium was removed 24 h later and cells were rinsed with PBS to eliminate any trace of dFCS. Then, ^3H-E1S was added in dFCS free medium, followed by test compounds at concentrations ranging from 10^−12 M to 10^−5 M. After 4 h of treatment, the medium was transferred into 96-deep-well microplates and centrifuged at 200×g for 10 min to pellet cells before toluene extraction. A fraction of the medium was used for toluene extraction in order to separate the conjugated substrate from non-conjugated products. The radioactivity in the toluene phase was measured by liquid scintillation counting. […] Finally, estrone sulfatase activity was expressed in pmoles of ^3H-E1+^3H-E2 formed/4 hours/mg DNA and estrone sulfatase inhibition as a percentage of control activity without inhibitor.
In order to evaluate the inhibitory potency of DASI compounds in parallel on both human aromatase and steroid sulfatase activities, a new in vitro model was set up using JEG-3 cells. The experimental conditions of the steroid sulfatase model previously described was adopted with slight modifications: the presence of the two substrates ^3-HE1S and 1β-^3H-androstenedione into the medium and an incubation period of 2 hours. Results were expressed in pmoles of product formed (^3H-E1+^3H-E2 or ^3H2O)/2 hours/mg DNA (Table 1).

[2] = molecular target: human carbonic anhydrase II (Homo sapiens, UniProt P00918); assay: Human carbonic anhydrase II activity (p-nitrophenyl acetate, colorimetric); format: biochemical; settings: read-out: Human carbonic anhydrase II activity IC50 (nm) ± S.E.M.
Protocol: Briefly, in this assay, human carbonic anhydrase II catalyses the conversion of p-nitrophenyl acetate into pnitrophenol. The potential inhibitory effect of test compounds was evaluated by colorimetric determination of prnitrophenol produced during the enzymatic reaction. The optical density levels obtained without inhibitor will be referred to as “total activity”. The levels obtained without Inhibitor and without the enzyme will be referred to as “blank” in order to assess any interference with the substrate during the assay (Table 2).

[3] = system: MCF7 cells; assay: ER+ human breast tumor tissue xenografted into nude rats; format: in vivo, nude rat (Rnu/Rnu); settings: for Volume variations (expressed as % of E1S positive control group): oral 5 mg/kg/day, nude rats supplemented with E1S
Protocol: MCF7 cells (ATCC), derived from human breast adenocarcinoma, were injected subcutaneously in ovariectomized athymic nude mice supplemented with a daily administration of subcutaneous estradiol. Xenograft volumes were determined weekly. After 8 weeks, tumor volumes reached 1000 mm3, providing 500 mg samples of estrogen responsive tissues for each animals. At this time each tumor was sliced and regrafted into naïve ovariectomized nude rat (Rnu/Rnu). Then animals were treated with estrone sulfate as precursor of estradiol by the steroid sulfatase pathway. When tumor volumes reached significant increase, distinct from the placebo, animals were randomized and separated in two groups. The first group was treated with Ex 45 and supplemented with daily administration of estrone sulfate. The second one was sham administered with the vehicle and supplemented with the same dosage of estrone sulfate. Ex 45 was orally administered at 5 mg/kg/day for 5 weeks. Xenografts were measured weekly by electronic Caliper and compared to the estrone sulfate group. (Table 5).

[4] = system: aromatase; assay: Inhibition of estradiol peak, in vivo aromatase inhibition model; design: species or system rat; settings: female rats, 24 hours after one oral administration
Protocol: One hundred IOPS Wistar female rats, weighing 180 to 200 g, were accommodated by four in stainless steel mesh cages. […] Vaginal smears were performed for each animal, each morning, in order to establish the different phases of cycle. […] Starting at 4.00 pm, animals received an oral administration of formulations. 24 hours later, samples of serum were collected and estradiol level were determined as previously described (Table 4).

[5] = system: Ishikawa cells; assay: Alkaline phosphatase activity in Ishikawa cells (estrogenic potency); format: cell-based; settings: hydrochloride
Protocol: Ishikawa cells were plated into 96-well microplates 48 hours before studies. The next day, the medium was replaced by phenol red free medium supplemented with 5% charcoal-stripped dFCS. 24 hours later, the medium was renewed and compounds were added to the plated cells and incubated for an additional four-day period. […] At the end of the incubation period, alkaline phosphatase activity (APase) was assayed by a method involving the hydrolysis of p-nitrophenyl phosphate to p-nitrophenol and spectrophotometric determination of the product at 405 nm.
In brief, the microplates were first rinsed twice with cold phosphate buffered solution and then placed at −80° C. for at least 15 minutes. After thawing at room temperature, 50 μl ice-cold solution containing 5 mM p-nitrophenyl phosphate was added to each well. After a 15 to 60 minute incubation period at room temperature, the intensity of the yellow color generated by the production of p-nitrophenol was measured into each well at 405 nm.
For each tested concentration, APase activity, reflected by absorbance, was first expressed as fold increase over control (FI) and then as percentage of E2 activity (10^-8 M) chosen equal to 100%.

Cl.N#Cc1ccc(N(Cc2ccc(OS(N)(=O)=O)c(Br)c2)n2ccnc2)cc1 [Ex 45, Sulfamic acid 2-bromo-4-{[N-(4-cyanophenyl)-N-(1H-imidazol-1yl)amino]methyl}phenyl ester, hydrochloride]
IC50 [1]: < 1 nM
melting point: 145 °C
IC50 [2]: 16.2 ± 3.3 nM
Volume variations (expressed as % of E1S positive control group) ([3]; Day 7): 0%
Volume variations (expressed as % of E1S positive control group) ([3]; Day 28): −26%
Volume variations (expressed as % of E1S positive control group) ([3]; Day 35): −44%
Volume variations (expressed as % of E1S positive control group) ([3]; Day 42): −39%
decrease in tumor volume ([3]; at the end of the experiments, after five weeks of daily treatment, 5 mg/kg/day oral): 40%
tumor volumes (in words) ([3]; vs groups only treated with estrone sulfate (E1S)): did not increased
% inhibition (estradiol peak) [4]: 28%
estrogenicity in vitro (in words) [5]: not estrogenic; also recorded: lack of estrogenicity
